Test results taken from US6228626A, “Sarcosine oxidase and process for producing the same” (priority 1998, dated 2001).

Biological target: mutant sarcosine oxidase from E. coli JM109 (pSO12 EH), FERM BP-6597; mutant of Bacillus sp. NS-129 sarcosine oxidase (wild type SEQ ID NO: 1) (Bacillus sp. NS-129, UniProt P23342)
Experiment: Km determination by sarcosine oxidase enzyme assay (formaldehyde/acetyl-acetone colour), Lineweaver-Burk plot
Assay type: biochemical
Details: read-out: Km value (for sarcosine), phosphate buffer pH7.7, 37° C., 10 minutes
Protocol: 0.25M phosphate buffer (0.1 ml, pH7.7), 0.2 M sarcosine solution (0.3 ml) and the enzyme solution with an appropriate concentration (0.1 ml) were mixed and reacted at 37° C. for 10 minutes. Then, 1.0 N acetic acid solution (0.5 ml) was added to the mixture to stop the reaction. To the mixture was added 3 ml of acetyl-acetone color-developing solution (acetyl-acetone, 0.2%(v/v) and diammonium hydrogenphosphate, 10%(w/v) ) (pH6.5) to develop the color at 37° C. for 40 minutes. The absorbance was determined at 410 nm by spectrophotometer. Then, the yield of the enzyme was estimated from the calibration curve of formaldehyde prepared beforehand. The amount of the enzyme which produces 1 μmole of formaldehyde per minute at 37° C. was defined as 1 unit.
The Km value of the enzyme was determined using the assay as described above.

CNCC(=O)O [sarcosine]
Km: ~3.5 mM
